Assay results published in BindingDB's records for doi:10.1021/bi00407a006 (Enscp, 1988).

Target: T1, Glutamine--fructose-6-phosphate aminotransferase [isomerizing] (Escherichia coli (strain K12), UniProt P17169)
T1 sequence (P17169 whole entry): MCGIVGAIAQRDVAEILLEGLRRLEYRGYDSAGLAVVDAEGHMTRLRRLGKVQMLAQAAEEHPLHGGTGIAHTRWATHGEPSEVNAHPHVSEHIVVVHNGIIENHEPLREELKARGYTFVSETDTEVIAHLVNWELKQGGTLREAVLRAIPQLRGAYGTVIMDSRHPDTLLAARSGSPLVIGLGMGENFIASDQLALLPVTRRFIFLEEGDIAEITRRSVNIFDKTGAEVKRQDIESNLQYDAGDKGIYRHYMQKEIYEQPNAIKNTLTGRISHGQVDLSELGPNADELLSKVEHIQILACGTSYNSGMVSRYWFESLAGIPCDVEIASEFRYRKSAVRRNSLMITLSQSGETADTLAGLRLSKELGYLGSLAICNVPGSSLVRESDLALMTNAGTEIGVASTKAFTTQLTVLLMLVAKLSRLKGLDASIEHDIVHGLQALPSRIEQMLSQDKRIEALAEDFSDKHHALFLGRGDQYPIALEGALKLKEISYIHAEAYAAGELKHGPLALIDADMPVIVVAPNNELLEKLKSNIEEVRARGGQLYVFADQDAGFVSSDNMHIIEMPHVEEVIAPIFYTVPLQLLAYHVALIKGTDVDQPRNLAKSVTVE

SMILES	Ki [nM]
COC(=O)/C=C/C(=O)NC[C@H](N)C(=O)O [(2S)-2-azaniumyl-3-[[(E)-4-methoxy-4-oxobut-2-enoyl]amino]propanoate]	350
N[C@@H](CNC(=O)/C=C/C(=O)O)C(=O)O [(E)-4-[[(2S)-2-azaniumyl-2-carboxylatoethyl]amino]-4-oxobut-2-enoate]	55100
N#[N+][CH-]C(=O)CC[C@H](N)C(=O)NCC(=O)O [(Z,5S)-5-amino-6-(carboxymethylamino)-1-diazonio-6-oxohex-1-en-2-olate]	1400
